These results are taken from patent US7625948B2, “Ester compound and medicinal use thereof” (Japan Tobacco Inc., priority 2002, dated 2009).

One assay concerns HepG2 cells. The assay is described as follows: Test Example 2: inhibition of apolipoprotein B secretion from HepG2 cells, ELISA (also used for metabolites in Test Example 8). It counts as cell-based. As to conditions: Homo sapiens, 24 hours, apo B in supernatant by ELISA, read-out: Test Example 2 Inhibition of apo B secretion IC50. The procedure: Inhibition of Apolipoprotein B Secretion from HepG2 Cells
HepG2 cells were suspended in Dulbecco's Modified Eagle's Medium (DMEM) (containing 10% fetal bovine serum, 100 units/mL penicillin and 100 μg/mL streptomycin), and placed on a 96-well plate (4×10^4 cells/well), then incubated for 24 hours. After removal of the medium, DMEM was replaced by a medium containing a sample dissolved in DMSO or a medium containing DMSO (concentration of DMSO: 0.5%) and incubation was further performed for 24 hours, after which the supernatant was recovered, and concentration of apo B in the supernatant was assayed by Enzyme-Linked Immunosorbent Assay (ELISA)
ELISA was carried out as follows. Anti-human apo B monoclonal antibody (0.5 μg/well) diluted with a solution of sodium carbonate in sodium bicarbonate buffer (50 mL, pH 9.6) was placed in a 96-well plate for ELISA, and allowed to stand at room temperature for 15 hours. After washing the plate, a blocking solution (250 μL/well) was placed in the well, and allowed to stand at room temperature for 1.5 hours. After washing the plate, a standard and a sample (100 μL/well) were placed in the well and allowed to stand at room temperature for one hour. The standard was prepared by adjusting the concentration of the purified human apo B with the DMEM to 0 to 1000 ng/mL. After washing the plate, an anti-human apo B polyclonal antibody labeled with a horse radish peroxidase which was diluted in 1:1000 with DEME (100 μL/well), and allowed to stand at room temperature for one hour. After washing the plate, 2,2-azinobis(3-ethylbenzothiazoline-6-sulfonic acid) solution (100 μL/well) was placed in the well, and allowed to stand at room temperature for one hour. The reaction was stopped by addition of 2% oxalic acid (100 μL/well), and absorbency at 405 nm was measured. Concentration of apo B in the sample was calculated on the basis of a standard curve of the standard. Inhibition rate (%) was calculated from the assayed values in accordance with the following equation.
Inhibition rate (%)=100×(1 minus (concentration of apo B in sample group/concentration of apo B in DMSO group).
Based on the above equation, 50% inhibition concentration (IC50) was determined.
Inhibitory Activity on MTP and apo B Secretion Inhibition by Metabolites
In a similar manner to Test Examples 1 and 2, the activity of metabolites was assayed.
In general terms: In an ELISA, binding on a coated surface is turned into a signal by an enzyme label.
Regarding `COCCNC(=O)C(COC(=O)Cc1ccc(NC(=O)c2ccccc2-c2ccc(C(F)(F)F)cc2)cc1)(C(=O)NCCOC)c1ccccc1` [Example 1-73], the IC50 was 39 nM.

In the case of `CCOC(=O)C(COC(=O)Cc1ccc(NC(=O)c2sc(C)nc2-c2ccc(C(F)(F)F)cc2)cc1)(C(=O)OCC)c1ccccc1` [Example 1-74], the half-maximal inhibitory concentration (IC50) turned out to be 680 nM.

Take `CCNC(=O)C(COC(=O)Cc1ccc(NC(=O)c2sc(C)nc2-c2ccc(C(F)(F)F)cc2)cc1)(C(=O)NCC)c1ccccc1` [Example 1-75]: the IC50 was 97 nM.

For the molecule `CCNC(=O)C(COC(=O)Cc1ccc(NC(=O)c2cccnc2-c2ccc(C(F)(F)F)cc2)cc1)(C(=O)NCC)c1ccccc1` [Example 1-76], the IC50 amounted to 120 nM.

As to `CCNC(=O)C(COC(=O)Cc1ccc(NC(=O)c2cccnc2-c2ccc(C(F)(F)F)cc2)c(C)c1)(C(=O)NCC)c1ccccc1` [Example 1-77], the IC50 turned out to be 360 nM.

Consider `CCOC(=O)C(COC(=O)Cc1ccc(NC(=O)c2ccccc2-c2ccc(C(F)(F)F)cc2)c(CC)c1)(C(=O)OCC)c1ccccc1` [Example 1-78], for which the IC50 came out at 11 nM.

Regarding `CCNC(=O)C(COC(=O)Cc1ccc(NC(=O)c2ccccc2-c2ccc(C(F)(F)F)cc2)c(C(C)C)c1)(C(=O)NCC)c1ccccc1` [Example 1-79], the 50% inhibitory concentration (IC50) is 0.59 nM.

With `CCOC(=O)C(COC(=O)Cc1ccc(NC(=O)c2ccccc2-c2ccc(C(F)(F)F)cc2)c(C(C)C)c1)(C(=O)OCC)c1ccccc1` [Example 1-80], the 50% inhibitory concentration (IC50) stood at 8.2 nM.

For `CCNC(=O)C(CCOC(=O)Cc1ccc(NC(=O)c2ccccc2-c2ccc(C(F)(F)F)cc2)c(CC)c1)(C(=O)NCC)c1ccccc1` [Example 1-81], the IC50 is 0.49 nM.

Consider `CCNC(=O)C(COC(=O)Cc1ccc(NC(=O)c2ccccc2-c2ccc(C(F)(F)F)cc2)c(CC(C)C)c1)(C(=O)NCC)c1ccccc1` [Example 1-82], for which the half-maximal inhibitory concentration (IC50) was 0.53 nM.

Consider `CCOC(=O)C(COC(=O)Cc1ccc(NC(=O)c2ccccc2-c2ccc(C(F)(F)F)cc2)c(CC(C)C)c1)(C(=O)OCC)c1ccccc1` [Example 1-83], for which the IC50 came out at 0.23 nM.

As to `CCOC(=O)C(COC(=O)Cc1ccc(NC(=O)c2ccccc2-c2ccc(C(F)(F)F)cc2)c(Cl)c1)(C(=O)OCC)c1ccccc1` [Example 1-84], the concentration for half-maximal inhibition (IC50) worked out at 4.4 nM.

Turning to `CCOC(=O)C(COC(=O)Cc1ccc(NC(=O)c2ccccc2-c2ccc(C(F)(F)F)cc2)c(Br)c1)(C(=O)OCC)c1ccccc1` [Example 1-85], the half-inhibitory concentration (IC50) was 3.2 nM.

For `CCOC(=O)C(COC(=O)Cc1ccc(NC(=O)c2ccccc2-c2ccc(C(F)(F)F)cc2)c(C(=O)N(CC)CC)c1)(C(=O)OCC)c1ccccc1` [Example 2-10], the half-maximal inhibitory concentration (IC50) is 1.4 nM.

Consider `CCNC(=O)C(COC(=O)Cc1ccc(NC(=O)c2ccccc2-c2ccc(C(F)(F)F)cc2)c(C(=O)N(C)C(C)C)c1)(C(=O)NCC)c1ccccc1` [Example 2-12], for which the IC50 was 7 nM.

`CCNC(=O)C(COC(=O)Cc1ccc(NC(=O)c2ccccc2-c2ccc(C(F)(F)F)cc2)c(C(=O)N2CCCCC2)c1)(C(=O)NCC)c1ccccc1` [Example 2-16]: the IC50 worked out at 2.7 nM.

On to `CCCN(C)C(=O)c1cc(CC(=O)OCC(C(=O)NCC)(C(=O)NCC)c2ccccc2)ccc1NC(=O)c1ccccc1-c1ccc(C(F)(F)F)cc1` [Example 2-19], for which the 50% inhibitory concentration (IC50) amounted to 26 nM.

For `CCCN(C)C(=O)c1cc(CC(=O)OCCC(C(=O)NCC)(C(=O)NCC)c2ccccc2)ccc1NC(=O)c1ccccc1-c1ccc(C(F)(F)F)cc1` [Example 2-20], the IC50 turned out to be 0.64 nM.

As for `CCC(=O)N[C@@H](COC(=O)Cc1ccc(NC(=O)c2ccccc2-c2ccc(C(F)(F)F)cc2)c(C(=O)N(C)C)c1)c1ccccc1` [Example 2-24], the half-inhibitory concentration (IC50) turned out to be 28 nM.

For the molecule `CN(C)C(=O)c1cc(CC(=O)OC[C@H](c2ccccc2)N2C(=O)CCC2=O)ccc1NC(=O)c1ccccc1-c1ccc(C(F)(F)F)cc1` [Example 2-26], the concentration for half-maximal inhibition (IC50) amounted to 8.2 nM.

`CC(C)N[C@@H](COC(=O)Cc1ccc(NC(=O)c2ccccc2-c2ccc(C(F)(F)F)cc2)c(C(=O)N(C)C)c1)c1ccccc1` [Example 2-29]: the IC50 was 91 nM.

Regarding `CCNC(=O)C(COC(=O)Cc1ccc(NC(=O)c2ccccc2C(F)(F)F)c(C(=O)N(C)C)c1)(C(=O)NCC)c1ccccc1` [Example 2-30], the IC50 is 27 nM.

With `CCOC(=O)C(COC(=O)Cc1ccc(NC(=O)c2ccccc2C(F)(F)F)c(C(=O)N(C)C)c1)(C(=O)OCC)c1ccccc1` [Example 2-31], the half-inhibitory concentration (IC50) worked out at 43 nM.

As for `CCOC(=O)C(CCOC(=O)Cc1ccc(NC(=O)c2ccccc2-c2ccc(C(F)(F)F)cc2)c(C(=O)N(C)C)c1)(C(=O)OCC)c1ccccc1` [Example 2-32], the IC50 is 1.7 nM.

For `CCOC(=O)C(COC(=O)Cc1ccc(NC(=O)c2ccccc2-c2ccc(F)cc2)c(C(=O)N(C)C)c1)(C(=O)OCC)c1ccccc1` [Example 2-33], the half-maximal inhibitory concentration (IC50) stood at 13 nM.

Turning to `CCOC(=O)C(COC(=O)Cc1ccc(NC(=O)c2ccccc2-c2ccc(Br)cc2)c(C(=O)N(C)C)c1)(C(=O)OCC)c1ccccc1` [Example 2-34], the half-maximal inhibitory concentration (IC50) is 2 nM.

Turning to `CC(=O)N[C@H](COC(=O)Cc1ccc(NC(=O)c2ccccc2-c2ccc(C(F)(F)F)cc2)c(C(=O)N(C)C)c1)c1ccccc1` [Example 2-35], the concentration for half-maximal inhibition (IC50) amounted to 38 nM.

Regarding `CCCC(=O)N[C@H](COC(=O)Cc1ccc(NC(=O)c2ccccc2-c2ccc(C(F)(F)F)cc2)c(C(=O)N(C)C)c1)c1ccccc1` [Example 2-36], the IC50 was determined as 7.4 nM.

As to `CCOC(=O)C(COC(=O)Cc1ccc(NC(=O)c2ccccc2-c2ccc(C(F)(F)F)cc2)c(C(=O)N(C)C)c1)(C(=O)OCC)C1CCCC1` [Example 2-40], the IC50 is 0.99 nM.

Consider `CCOC(=O)C(COC(=O)Cc1ccc(NC(=O)c2ccccc2-c2ccc(C(F)(F)F)cc2)c(C(=O)N(C)C)c1)(C(=O)OCC)C1CCCCC1` [Example 2-41], for which the IC50 was found to be 1.2 nM.

In the case of `CCOC(=O)C(COC(=O)Cc1ccc(NC(=O)c2ccccc2-c2ccc(Cl)cc2)c(C(=O)N(C)C)c1)(C(=O)OCC)c1ccccc1` [Example 2-42], the half-maximal inhibitory concentration (IC50) worked out at 1.8 nM.

On to `CCOC(=O)C(COC(=O)Cc1ccc(NC(=O)c2ccccc2-c2ccc(C(C)=O)cc2)c(C(=O)N(C)C)c1)(C(=O)OCC)c1ccccc1` [Example 2-43], for which the half-inhibitory concentration (IC50) came out at 9 nM.

Take `CCNC(=O)C(COC(=O)Cc1ccc(NC(=O)c2ccccc2Oc2ccccc2)c(C(=O)N(C)C)c1)(C(=O)NCC)c1ccccc1` [Example 2-44]: the concentration for half-maximal inhibition (IC50) turned out to be 33 nM.

Take `CCOC(=O)C(COC(=O)Cc1ccc(NC(=O)c2ccccc2Oc2ccccc2)c(C(=O)N(C)C)c1)(C(=O)OCC)c1ccccc1` [Example 2-45]: the 50% inhibitory concentration (IC50) came out at 39 nM.

As to `CCOC(=O)C(COC(=O)Cc1ccc(NC(=O)c2ccccc2-c2ccc(C#N)cc2)c(C(=O)N(C)C)c1)(C(=O)OCC)c1ccccc1` [Example 2-46], the IC50 came out at 2.9 nM.

Regarding `CCOC(=O)C(COC(=O)Cc1ccc(NC(=O)c2cc(C)ccc2-c2ccc(C(F)(F)F)cc2)c(C(=O)N(C)C)c1)(C(=O)OCC)c1ccccc1` [Example 2-47], the IC50 is 1.2 nM.

With `CN(C)C(=O)c1cc(CC(=O)OC[C@@H](NS(C)(=O)=O)c2ccccc2)ccc1NC(=O)c1ccccc1-c1ccc(C(F)(F)F)cc1` [Example 2-49], the 50% inhibitory concentration (IC50) was 49 nM.

For the molecule `CCOC(=O)C(COC(=O)Cc1ccc(NC(=O)c2ccccc2-c2ccc(C(F)(F)F)cc2)c(C(=O)N(C)C)c1)c1ccccc1` (stereo not drawn) [Example 2-50], the IC50 came out at 21 nM.

With `CCC(=O)N(C)[C@H](COC(=O)Cc1ccc(NC(=O)c2ccccc2-c2ccc(C(F)(F)F)cc2)c(C(=O)N(C)C)c1)c1ccccc1` [Example 2-51], the IC50 came out at 47 nM.

Turning to `CCOC(=O)C(COC(=O)Cc1ccc(NC(=O)c2ccc(OC)cc2-c2ccc(C(F)(F)F)cc2)c(C(=O)N(C)C)c1)(C(=O)OCC)c1ccccc1` [Example 2-53], the half-inhibitory concentration (IC50) is 4.6 nM.

With `CCOC(=O)C(COC(=O)Cc1ccc(NC(=O)c2ccc(Cl)cc2-c2ccc(C(F)(F)F)cc2)c(C(=O)N(C)C)c1)(C(=O)OCC)c1ccccc1` [Example 2-54], the 50% inhibitory concentration (IC50) turned out to be 8.5 nM.

As for `CCOC(=O)C(COC(=O)Cc1ccc(NC(=O)c2cccc(C)c2-c2ccc(C(F)(F)F)cc2)c(C(=O)N(C)C)c1)(C(=O)OCC)c1ccccc1` [Example 2-55], the IC50 stood at 4.2 nM.

For `CN(C)C(=O)c1cc(CC(=O)OCC(C(=O)OCC(F)(F)F)(C(=O)OCC(F)(F)F)c2ccccc2)ccc1NC(=O)c1ccccc1-c1ccc(C(F)(F)F)cc1` [Example 2-56], the half-inhibitory concentration (IC50) is 0.93 nM.

On to `CCOC(=O)C(COC(=O)Cc1ccc(NC(=O)c2ccccc2-c2ccc(C(F)(F)F)cc2F)c(C(=O)N(C)C)c1)(C(=O)OCC)c1ccccc1` [Example 2-57], for which the IC50 is 0.56 nM.

The same assay, now with this note: Homo sapiens, main metabolites of the compounds (Test Example 8), read-out: Inhibition of apo B secretion IC50.
For `O=C(O)Cc1ccc(NC(=O)c2ccccc2-c2ccc(C(F)(F)F)cc2)c(C(=O)N2CCCC2)c1`, the IC50 was more than 10000 nM.

The IC50 is the concentration needed to halve the response being measured.
